According to patent US9295682B2, “Adjuvant immunotherapy for the preventive, curative or palliative treatment of chronic systemic diseases such as cancer, of clinical manifestations associated with diseases like cachexia and correction of adverse effects of drugs such as immunosuppression, neutropenia and lymphopenia, comprising …” (priority 2009, dated 2016):
Values joined by “and” are separate entries in the source; they are usually repeats but may differ in a detail not shown here. Equal values may be shown once.

What was measured:
hTLR8 = biological target: T1, hTLR8 (Homo sapiens, UniProt Q9NR97); assay: Toll-like receptor binding/stimulation, HEK293 cells expressing hTLR8; assay type: cell-based; conditions: CL075 1 μg/mL
T1 construct: expressed in transfected cells; host or cells: HEK293 (293/hTLR8)
T1 sequence (Q9NR97 27-1041): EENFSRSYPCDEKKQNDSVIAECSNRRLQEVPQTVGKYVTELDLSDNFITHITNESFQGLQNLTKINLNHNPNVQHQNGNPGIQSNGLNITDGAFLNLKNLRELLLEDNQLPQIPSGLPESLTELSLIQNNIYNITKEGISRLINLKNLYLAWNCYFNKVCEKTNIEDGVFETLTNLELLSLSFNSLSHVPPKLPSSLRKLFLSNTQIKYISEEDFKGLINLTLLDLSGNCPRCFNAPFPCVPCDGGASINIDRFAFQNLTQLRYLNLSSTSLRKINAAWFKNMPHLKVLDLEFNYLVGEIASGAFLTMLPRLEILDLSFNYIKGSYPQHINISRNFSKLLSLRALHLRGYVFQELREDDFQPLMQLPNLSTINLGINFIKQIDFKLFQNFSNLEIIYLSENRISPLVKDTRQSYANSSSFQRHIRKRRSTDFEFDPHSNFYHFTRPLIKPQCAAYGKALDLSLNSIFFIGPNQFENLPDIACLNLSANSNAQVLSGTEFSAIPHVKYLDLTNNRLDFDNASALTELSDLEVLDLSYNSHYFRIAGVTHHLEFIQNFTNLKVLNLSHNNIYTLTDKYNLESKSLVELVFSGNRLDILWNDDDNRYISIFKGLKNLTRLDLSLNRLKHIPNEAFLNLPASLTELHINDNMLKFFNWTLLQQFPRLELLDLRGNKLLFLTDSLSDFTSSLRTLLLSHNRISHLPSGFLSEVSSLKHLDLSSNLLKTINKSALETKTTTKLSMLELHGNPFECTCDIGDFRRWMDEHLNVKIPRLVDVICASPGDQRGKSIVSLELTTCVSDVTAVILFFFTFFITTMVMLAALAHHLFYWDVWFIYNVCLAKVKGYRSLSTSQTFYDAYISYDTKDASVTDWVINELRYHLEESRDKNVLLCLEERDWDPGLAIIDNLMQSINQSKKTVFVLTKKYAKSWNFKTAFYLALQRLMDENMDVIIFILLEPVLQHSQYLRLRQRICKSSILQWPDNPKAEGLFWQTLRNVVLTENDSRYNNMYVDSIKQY
Description: (§1) Samples in three concentrations (0.5 μg/mL, 5 μg/mL, and 50 μg/mL) of the biological response modifier (proteic aggregate of ammonium and magnesium phospholinoleate-palmitoleate anhydride) were dissolved in dimethylsulfoxide (DMSO at 1%) at the concentration of 1% and incubated with 293 TLR cells (HEK293 cells) in microplates, in duplicate, for 20 hours.
(§2) Standard compounds, that is, ligands known for TLR 3 to TLR9 in predetermined concentrations were also incubated in microplates with 293 TLR cells (HEK293 cells) for 20 hours.
(§3) Subsequently, absorbance readings were taken of the microplates […] at 650 nm using a Beckman Coulter AD 340C Absorbance Detector device with three concentrations of the biological response modifier (proteic aggregate of ammonium and magnesium phospholinoleate-palmitoleate anhydride) incubated with the HEK293 cells and readings were also taken of the microplates incubated with the same cells and the control substances, for comparative assessment of the percentage of binding of the aforementioned compounds to toll-like receptors expressed in HEK293 cells.

hTLR7 = biological target: T2, hTLR7 (Homo sapiens, UniProt Q9NYK1); assay: Toll-like receptor binding/stimulation, HEK293 cells expressing hTLR7; assay type: cell-based; conditions: CL097 1 μg/mL
T2 construct: expressed in transfected cells; host or cells: HEK293 (293/hTLR7)
T2 sequence (Q9NYK1 27-1049): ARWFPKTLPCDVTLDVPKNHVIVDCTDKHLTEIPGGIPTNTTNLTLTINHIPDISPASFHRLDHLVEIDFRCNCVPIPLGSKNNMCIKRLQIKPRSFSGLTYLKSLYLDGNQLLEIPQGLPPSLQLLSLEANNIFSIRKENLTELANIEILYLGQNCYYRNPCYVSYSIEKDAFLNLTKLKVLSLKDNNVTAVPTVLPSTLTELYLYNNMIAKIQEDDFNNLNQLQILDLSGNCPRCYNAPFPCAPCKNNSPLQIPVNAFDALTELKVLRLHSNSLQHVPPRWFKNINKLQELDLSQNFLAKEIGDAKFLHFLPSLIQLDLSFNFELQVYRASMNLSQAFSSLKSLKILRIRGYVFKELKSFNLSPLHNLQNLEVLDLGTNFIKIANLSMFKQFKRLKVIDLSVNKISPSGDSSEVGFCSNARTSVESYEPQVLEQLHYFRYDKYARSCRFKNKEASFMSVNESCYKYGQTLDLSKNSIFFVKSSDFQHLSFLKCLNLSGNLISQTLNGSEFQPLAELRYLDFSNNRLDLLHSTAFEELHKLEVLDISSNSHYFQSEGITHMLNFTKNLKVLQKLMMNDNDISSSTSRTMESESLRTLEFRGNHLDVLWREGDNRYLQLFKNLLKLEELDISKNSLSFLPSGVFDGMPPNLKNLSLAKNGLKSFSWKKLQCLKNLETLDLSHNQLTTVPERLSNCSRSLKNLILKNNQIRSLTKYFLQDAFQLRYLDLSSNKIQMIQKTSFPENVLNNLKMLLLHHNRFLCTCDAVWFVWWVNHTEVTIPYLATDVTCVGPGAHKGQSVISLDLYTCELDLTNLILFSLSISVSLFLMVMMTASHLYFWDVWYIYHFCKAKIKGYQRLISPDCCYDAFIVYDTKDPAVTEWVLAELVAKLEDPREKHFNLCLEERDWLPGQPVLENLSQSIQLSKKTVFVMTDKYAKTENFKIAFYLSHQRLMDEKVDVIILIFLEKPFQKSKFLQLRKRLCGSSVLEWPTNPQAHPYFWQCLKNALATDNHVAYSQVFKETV
Description: as §1, §2, §3

hTLR9 = biological target: T3, hTLR9 (Homo sapiens, UniProt Q9NR96); assay: Toll-like receptor binding/stimulation, HEK293 cells expressing hTLR9; assay type: cell-based; conditions: CpG ODN 2006 1 μg/mL
T3 construct: expressed in transfected cells; host or cells: HEK293 (293/hTLR9)
T3 sequence (Q9NR96 26-1032): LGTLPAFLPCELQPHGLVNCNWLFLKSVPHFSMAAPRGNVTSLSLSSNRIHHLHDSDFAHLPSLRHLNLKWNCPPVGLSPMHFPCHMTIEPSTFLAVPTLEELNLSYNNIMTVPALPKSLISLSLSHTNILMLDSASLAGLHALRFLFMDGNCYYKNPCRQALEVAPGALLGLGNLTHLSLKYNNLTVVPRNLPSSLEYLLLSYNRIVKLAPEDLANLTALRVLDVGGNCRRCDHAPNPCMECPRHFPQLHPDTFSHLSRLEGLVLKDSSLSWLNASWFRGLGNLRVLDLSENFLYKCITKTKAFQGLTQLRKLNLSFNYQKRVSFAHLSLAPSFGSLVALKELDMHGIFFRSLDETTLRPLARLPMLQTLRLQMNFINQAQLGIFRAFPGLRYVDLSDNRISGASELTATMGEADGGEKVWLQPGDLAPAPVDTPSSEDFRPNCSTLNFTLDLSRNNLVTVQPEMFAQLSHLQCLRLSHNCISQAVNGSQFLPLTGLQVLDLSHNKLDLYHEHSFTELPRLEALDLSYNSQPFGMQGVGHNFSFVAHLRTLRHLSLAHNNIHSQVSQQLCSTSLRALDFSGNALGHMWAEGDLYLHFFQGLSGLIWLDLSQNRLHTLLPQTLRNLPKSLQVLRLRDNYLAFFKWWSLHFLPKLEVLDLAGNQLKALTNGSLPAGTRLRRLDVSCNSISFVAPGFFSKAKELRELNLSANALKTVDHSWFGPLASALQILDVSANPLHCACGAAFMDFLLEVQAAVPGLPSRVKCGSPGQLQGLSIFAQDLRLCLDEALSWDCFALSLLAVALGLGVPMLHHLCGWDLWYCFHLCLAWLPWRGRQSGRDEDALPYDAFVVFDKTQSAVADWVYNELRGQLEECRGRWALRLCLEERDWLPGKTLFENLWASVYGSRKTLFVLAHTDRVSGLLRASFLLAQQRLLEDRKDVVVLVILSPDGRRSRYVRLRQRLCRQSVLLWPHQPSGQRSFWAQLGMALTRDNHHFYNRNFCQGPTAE
Description: as §1, §2, §3

hTLR3 = biological target: T4, hTLR3 (Homo sapiens, UniProt O15455); assay: Toll-like receptor binding/stimulation, HEK293 cells expressing hTLR3; assay type: cell-based; conditions: Poly (I: C) 1 μg/mL
T4 construct: expressed in transfected cells; host or cells: HEK293 (293/hTLR3)
T4 sequence (O15455 24-904): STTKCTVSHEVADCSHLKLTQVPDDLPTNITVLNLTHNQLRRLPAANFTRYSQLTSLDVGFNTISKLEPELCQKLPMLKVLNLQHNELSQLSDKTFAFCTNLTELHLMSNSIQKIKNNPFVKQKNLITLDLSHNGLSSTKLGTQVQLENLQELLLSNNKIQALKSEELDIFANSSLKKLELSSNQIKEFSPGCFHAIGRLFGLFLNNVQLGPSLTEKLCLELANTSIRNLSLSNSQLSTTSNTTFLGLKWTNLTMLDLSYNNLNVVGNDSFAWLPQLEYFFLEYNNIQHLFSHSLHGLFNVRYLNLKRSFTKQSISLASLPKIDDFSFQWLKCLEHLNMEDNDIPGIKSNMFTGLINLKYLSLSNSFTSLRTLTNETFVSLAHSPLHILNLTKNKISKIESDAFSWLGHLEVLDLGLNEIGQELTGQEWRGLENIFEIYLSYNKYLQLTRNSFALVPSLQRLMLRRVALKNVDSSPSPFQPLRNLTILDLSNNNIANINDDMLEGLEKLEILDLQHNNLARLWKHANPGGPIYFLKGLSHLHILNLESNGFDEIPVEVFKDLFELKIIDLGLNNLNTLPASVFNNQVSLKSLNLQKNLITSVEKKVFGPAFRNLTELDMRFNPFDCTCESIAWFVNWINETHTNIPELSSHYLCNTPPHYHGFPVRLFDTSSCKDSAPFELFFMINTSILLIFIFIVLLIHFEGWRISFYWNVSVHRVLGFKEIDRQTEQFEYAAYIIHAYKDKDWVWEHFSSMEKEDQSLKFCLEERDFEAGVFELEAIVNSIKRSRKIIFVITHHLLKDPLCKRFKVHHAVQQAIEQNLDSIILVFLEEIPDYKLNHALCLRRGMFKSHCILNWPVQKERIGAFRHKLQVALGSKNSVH
Description: as §1, §2, §3

NF-κB Control cells = assay: Toll-like receptor screening, NF-κB control cells; assay type: cell-based; conditions: TNFα 100 ng/ml
Description: as §1, §2, §3

metastatic melanoma = conditions: high doses of interferon-alpha alone; cited from earlier work
hTLR5 = hTLR5 (Homo sapiens, UniProt O60602); assay: Toll-like receptor binding/stimulation, HEK293 cells expressing hTLR5; assay type: cell-based; conditions: S. typhimurium flagellin 100 ng/ml
Sequence of hTLR5 (O60602 21-858): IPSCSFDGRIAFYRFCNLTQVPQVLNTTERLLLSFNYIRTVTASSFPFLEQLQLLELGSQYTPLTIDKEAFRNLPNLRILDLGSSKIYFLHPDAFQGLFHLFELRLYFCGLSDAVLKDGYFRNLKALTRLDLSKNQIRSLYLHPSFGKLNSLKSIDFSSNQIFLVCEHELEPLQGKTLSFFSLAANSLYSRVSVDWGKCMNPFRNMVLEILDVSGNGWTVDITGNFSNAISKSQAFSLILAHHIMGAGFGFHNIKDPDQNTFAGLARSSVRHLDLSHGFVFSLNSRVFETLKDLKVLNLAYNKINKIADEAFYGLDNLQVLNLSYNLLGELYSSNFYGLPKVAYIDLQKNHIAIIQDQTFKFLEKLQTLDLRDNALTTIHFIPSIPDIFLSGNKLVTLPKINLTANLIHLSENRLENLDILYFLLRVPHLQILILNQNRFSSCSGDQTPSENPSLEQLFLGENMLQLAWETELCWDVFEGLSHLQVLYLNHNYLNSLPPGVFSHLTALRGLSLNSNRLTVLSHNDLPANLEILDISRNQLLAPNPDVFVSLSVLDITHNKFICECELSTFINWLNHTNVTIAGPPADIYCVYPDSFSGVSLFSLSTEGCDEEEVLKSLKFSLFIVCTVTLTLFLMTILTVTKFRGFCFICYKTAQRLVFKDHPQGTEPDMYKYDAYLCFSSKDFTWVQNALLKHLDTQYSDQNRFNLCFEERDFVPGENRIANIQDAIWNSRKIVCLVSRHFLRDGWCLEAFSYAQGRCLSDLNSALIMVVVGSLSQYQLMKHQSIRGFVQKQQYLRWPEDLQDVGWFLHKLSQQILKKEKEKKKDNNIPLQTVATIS
Description: Subsequently, absorbance readings were taken of the microplates by fluorescence at 650 nm using a Beckman Coulter AD 340C Absorbance Detector device with three concentrations of the biological response modifier (proteic aggregate of ammonium and magnesium phospholinoleate-palmitoleate anhydride) incubated with the HEK293 cells and readings were also taken of the microplates incubated with the same cells and the control substances, for comparative assessment of the percentage of binding of the aforementioned compounds to toll-like receptors expressed in HEK293 cells.

With `CCCc1nc2c(N)nc3ccccc3c2s1` [CL075] the “OD (650 nm), 293/hTLR8 cells, Controls+” value (hTLR8; 20 h, screening 1 and 2) was 3.313 OD (650 nm) and 3.338 OD (650 nm) and the “% ligands (% bindings), 293/hTLR8, Controls” value (hTLR8; reference) was 100%.

With `CCOCc1nc2c([nH]1)c(N)nc1ccccc12` [CL097] the “OD (650 nm), 293/hTLR7 cells, Controls+” value (hTLR7; 20 h, screening 1 and 2) was 3.222 OD (650 nm) and 3.359 OD (650 nm) and the “% ligands (% bindings), 293/hTLR7, Controls” value (hTLR7; reference) was 100%.

With CpG ODN 2006 the “OD (650 nm), 293/hTLR9 cells, Controls+” value (hTLR9; 20 h, screening 1 and 2) was 2.582 OD (650 nm) and 2.519 OD (650 nm) and the “% ligands (% bindings), 293/hTLR9, Controls” value (hTLR9; reference) was 100%.

With Poly (I: C) the “OD (650 nm), 293/hTLR3 cells, Controls+” value (hTLR3; 20 h, screening 1 and 2) was 3.287 OD (650 nm) and 3.440 OD (650 nm) and the “% ligands (% bindings), 293/hTLR3, Controls” value (hTLR3; reference) was 100%.

With TNFα the “OD (650 nm), Cells NF-κB Controls, Controls+” value (NF-κB Control cells; 20 h, screening 1 and 2) was 2.221 OD (650 nm) and 2.042 OD (650 nm) and the “% ligands (% bindings), Cell NF-κB Controls, Controls” value (NF-κB Control cells; reference) was 100%.

For interferon-alpha, the response rate (metastatic melanoma) is listed as “around 20%”.

B1: S. typhimurium flagellin: TLR5 control ligand (protein, UniProt P06179 2-495, looked up)
Flagellin: AQVINTNSLSLLTQNNLNKSQSALGTAIERLSSGLRINSAKDDAAGQAIANRFTANIKGLTQASRNANDGISIAQTTEGALNEINNNLQRVRELAVQSANSTNSQSDLDSIQAEITQRLNEIDRVSGQTQFNGVKVLAQDNTLTIQVGANDGETIDIDLKQINSQTLGLDTLNVQQKYKVSDTAATVTGYADTTIALDNSTFKASATGLGGTDQKIDGDLKFDDTTGKYYAKVTVTGGTGKDGYYEVSVDKTNGEVTLAGGATSPLTGGLPATATEDVKNVQVANADLTEAKAALTAAGVTGTASVVKMSYTDNNGKTIDGGLAVKVGDDYYSATQNKDGSISINTTKYTADDGTSKTALNKLGGADGKTEVVSIGGKTYAASKAEGHNFKAQPDLAEAAATTTENPLQKIDAALAQVDTLRSDLGAVQNRFNSAITNLGNTVNNLTSARSRIEDSDYATEVSNMSRAQILQQAGTSVLAQANQVPQNVLSLLR
In the case of B1, the “OD (650 nm), 293/hTLR5 cells, Controls+” value (hTLR5; 20 h, screening 1 and 2) is reported as 3.662 OD (650 nm) and 3.798 OD (650 nm) and the “% ligands (% bindings), 293/hTLR5, Controls” value (hTLR5; reference) is reported as 100%.
